Measurements published in PubChem BioAssay (NCI).
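Each compound was tested at five concentrations against cells in 96-well plates for 48 hours. TGI: total growth inhibition.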

Tests used:
Assay in all cases: growth of human tumour cells (NCI), 48 h
SK-MEL-5 melanoma = tested on: SK-MEL-5 melanoma
HT29 colon = tested on: HT29 colon
OVCAR-5 ovarian = tested on: OVCAR-5 ovarian
M14 melanoma = tested on: M14 melanoma
SW-620 colon = tested on: SW-620 colon
MDA-MB-231 breast = tested on: MDA-MB-231 breast
MCF7 breast = tested on: MCF7 breast
SNB-75 CNS = tested on: SNB-75 CNS
U251 CNS = tested on: U251 CNS
SN12C renal = tested on: SN12C renal
SF-295 CNS = tested on: SF-295 CNS
KM12 colon = tested on: KM12 colon
HOP-92 NSCLC = tested on: HOP-92 NSCLC
OVCAR-4 ovarian = tested on: OVCAR-4 ovarian
SF-268 CNS = tested on: SF-268 CNS
PC-3 prostate = tested on: PC-3 prostate
MOLT-4 leukemia = tested on: MOLT-4 leukemia
MALME-3M melanoma = tested on: MALME-3M melanoma
NCI/ADR-RES ovarian = tested on: NCI/ADR-RES ovarian
UACC-62 melanoma = tested on: UACC-62 melanoma

Row | Structure (SMILES) | TGI (SK-MEL-5 melanoma) [µM] | TGI (HT29 colon) [µM] | TGI (OVCAR-5 ovarian) [µM] | TGI (M14 melanoma) [µM] | TGI (SW-620 colon) [µM] | TGI (MDA-MB-231 breast) [µM] | TGI (MCF7 breast) [µM] | TGI (SNB-75 CNS) [µM] | TGI (U251 CNS) [µM] | TGI (SN12C renal) [µM] | TGI (SF-295 CNS) [µM] | TGI (KM12 colon) [µM] | TGI (HOP-92 NSCLC) [µM] | TGI (OVCAR-4 ovarian) [µM] | TGI (SF-268 CNS) [µM] | TGI (PC-3 prostate) [µM] | TGI (MOLT-4 leukemia) [µM] | TGI (MALME-3M melanoma) [µM] | TGI (NCI/ADR-RES ovarian) [µM] | TGI (UACC-62 melanoma) [µM]
1 | O=C1C(=O)c2c(oc(=O)c3ccccc23)-c2ccccc21 | > 25 | > 25 | > 25 | > 25 | > 25 | > 25 | > 25 | > 25 | > 25 | > 25 | > 25 | > 25 | > 25 | 20.3 | > 25 | > 25 | > 25 | > 25 | > 25 | > 25
2 | CCN(CC)c1cc2c3c(c1)CCCN3CCC2 | > 10 | > 10 |  | > 10 | > 10 | > 10 | > 10 | > 10 | > 10 | > 10 | > 10 | > 10 | > 10 | > 10 | > 10 | > 10 | > 10 | > 10 | > 10 | > 10
3 | CCCCCCCCCCCCCCCCCCNc1ccn(C2OC(COP(=O)(O)OC3CC(n4cc(F)c(=O)[nH]c4=O)OC3COP(=O)(O)OCC3OC(n4ccc(N)nc4=O)C(O)C3O)C(O)C2O)c(=O)n1 (stereo not given) | > 48.8 | > 59.4 | > 100 | 23.4 | > 57.3 | > 61.7 | > 100 | > 100 | > 50.4 | 98.2 | > 51.9 | 41.5 | > 100 | > 100 |  | > 66.7 | 29.2 | > 100 | 53.5 | > 44.4
4 | CCC(C)C(C(=O)N/N=C1/SCC(=O)N1c1ccccc1)C(=O)N/N=C1/SCC(=O)N1c1ccccc1 (stereo not given) | 41.7 | > 100 | > 100 | > 100 | > 100 | 88.7 | > 100 | > 100 | > 100 | > 100 | > 100 | 93.9 | 45.2 | 33.3 | > 100 | > 100 | > 100 | 44.7 | > 100 | 36.9
5 | C=C(Cl)c1c(OC)cccc1OCc1ccccc1 | > 100 | > 100 | > 100 | > 100 | > 100 | > 100 | > 100 | > 100 | > 100 | > 100 | > 100 | > 100 | 78.9 | > 100 | > 100 | > 100 | > 100 | > 100 | > 100 | > 100
6 | COc1ccc2nc3c([N+](=O)[O-])ccc4c3c(c2c1)N=CN4CCCN(C)C | 12.1 | 12.5 | 25.5 | 23.6 | > 44.3 | 8.27 | 11.6 | 11.1 | 24.3 | 11.5 | 18.2 | 13 | 8.94 |  | 17.8 | 13 | 0.757 | 28.2 | 18 | 28.1
7 | Cc1cc([C@H](C#N)c2nc3ccccc3[nH]2)nc(Cl)n1 | > 100 | > 100 |  |  | > 100 | > 100 | > 100 | 93.4 | > 100 | > 100 | > 100 | 28.1 | > 100 | > 100 | > 100 | > 100 | > 100 | > 100 | > 100 | 65.3
8 | COC(=O)C1=C(O)C(C(=O)OC)[C@]2(O)[C@H](C(=O)OC)[C@H]1C[C@@H](c1ccc(F)cc1)[C@H]2C(=O)OC (stereo not given in full) | 25.2 | 34 | 37.5 | 27.5 | 53.4 | > 100 | > 100 | 73.2 | 31.9 | 26.3 | 43.9 | 47.9 | > 100 | > 100 | 95 | 33.2 | > 100 | 28 | 36.8 | 33.7
9 | Cc1ccc(-n2cnc3c(N)nc(N)nc32)cc1 | > 100 | > 100 | > 100 | > 100 | > 100 | > 100 | > 100 | > 100 | > 100 | > 100 | > 100 | > 100 | > 100 | > 100 | > 100 | > 100 | > 100 | > 100 | > 100 | > 100
10 | COc1ccc(Nc2nnc(CCCCCCCCc3nnc(Nc4ccc(OC)cc4)o3)o2)cc1 | > 100 | > 100 | > 100 | > 100 | > 100 | > 100 | > 100 | > 100 | > 100 | > 100 | > 100 | > 100 | > 100 | > 100 | > 100 | > 100 | > 100 | > 100 | > 100 | 
11 | CCOC(=O)CCC(NC(=O)c1ccc(CNc2nc3ccccc3nc2C(=O)OCC)cc1)C(=O)OCC (stereo not given) | > 100 | > 100 | > 100 | > 100 | > 100 | > 100 | > 100 | > 100 | > 100 | > 100 | > 100 | > 100 | > 100 |  | > 100 | > 100 | > 100 | > 100 | > 100 | > 100
12 | N=c1oc2ccc([N+](=O)[O-])cc2cc1C(=O)NCc1ccccc1 | 41.6 | 40.7 | 96 | 61.3 | 39.5 | 60.9 | > 100 | 29.5 | 83 | 36.9 | > 100 | 36.7 | 36.7 | 63.5 | 40.6 | 40.3 | > 100 | 26.7 | 33.6 | 42.9
13 | COC(=O)C(Cc1c[nH]c2ccccc12)N=C1Nc2ccncc2S(=O)(=O)N1c1ccccc1 (stereo not given) | 30 | 44.9 | > 100 | > 100 | 99.3 | > 100 | > 100 | 75 | > 100 | > 100 | > 100 | > 100 | 54.8 | 75.7 | > 100 | 54 | 35.1 | 40.5 | > 100 | 58.2
14 | CC1=NN(C(=O)CC(=O)Nc2ccc(C)cc2)C(=O)C1N=Nc1ccc(C(=O)O)cc1 (stereo not given) | > 100 | > 100 | > 100 | > 100 | > 100 | > 100 | > 100 | > 100 | > 100 | > 100 | > 100 | > 100 | > 100 | > 100 | > 100 | > 100 |  | > 100 | > 100 | > 100
15 | CC(C)(C)O/C=C1/C(=O)OC2C[C@@H](O[Si](C)(C)C(C)(C)C)CC12 (stereo not given in full) | > 100 | > 100 | > 100 | > 100 | > 100 | > 100 | > 100 | 93.3 | > 100 | > 100 | > 100 | > 100 | > 100 | > 100 | > 100 | > 100 |  | > 100 | > 100 | 
16 | CC1(C)C2CCC3=C(CCC4(C)C5C[C@](C)(C(=O)O)CC[C@]5(C)CC[C@]34C)[C@@]2(C)CC[C@@H]1O (stereo not given in full) | 68.7 | 33 | > 100 | 31.8 | 32.3 | 33.8 | 40.4 | 34.4 | 27.1 |  |  | 33.6 | 38.7 | 32.9 | > 100 | 29.1 | 48.9 | 31.5 | 36 | 37.6
17 | O=C1CC(=O)NC(=NN2C(=O)/C(=C/C(=O)c3ccco3)N=C2c2ccccc2)N1 |  | > 100 | > 100 | > 100 | > 100 | > 100 | > 100 | > 100 | > 100 | > 100 | > 100 | > 100 | > 100 | > 100 | > 100 | > 100 | 60.7 | > 100 | > 100 | > 100
18 | CC(C)(C)[Si](C)(C)O[C@@H](C(=O)OC1C=CCCC1)[C@@H](NC(=O)c1ccccc1)c1ccccc1 (stereo not given in full) | 37.2 | 49.5 | > 100 |  | > 100 | > 100 | 59.9 | > 100 | > 100 | 61.3 | 65.1 | > 100 | 99.5 | > 100 | > 100 | > 100 | 39.3 | > 100 | > 100 | > 100
19 | COc1cccc(OC/C(N=Cc2cccnc2)=N/NC(=O)c2ccncc2)c1 |  | > 100 | > 100 | > 100 | > 100 | > 100 | > 100 | > 100 | > 100 |  | > 100 | > 100 | > 100 | > 100 | > 100 | > 100 | > 100 | > 100 | > 100 | > 100
20 | Cc1c(C)c2c(c(N)c1C#N)C(=O)N(CCc1ccccc1)C2=O | > 100 |  | > 100 | > 100 | > 100 | > 100 | > 100 | > 100 | > 100 | > 100 | > 100 | > 100 | > 100 | > 100 | > 100 | > 100 | > 100 | > 100 | > 100 | > 100
21 | Cc1ccc2nc(CN3CCCC(O)C3)cc(=O)n2c1 (stereo not given) |  | > 100 | > 100 | > 100 | > 100 | > 100 | > 100 | > 100 | > 100 | > 100 | > 100 | > 100 | > 100 | > 100 | > 100 | > 100 | > 100 | > 100 | > 100 | > 100
22 | COC(=O)Nc1nc2ccc(S(=O)(=O)NC(CC(C)C)C(=O)OC)cc2[nH]1 (stereo not given) | 4.21 | 8.06 | 95.1 |  | > 100 | > 100 | > 100 | 8.16 | > 100 | > 100 | 5.44 | 12.6 | > 100 | > 100 | > 100 | > 100 | 29.2 | 41.2 | 59.6 | > 100
23 | COc1ccc(OC)c2sc(N3C(=O)/C(=C/c4ccc(Cl)cc4)N=C3c3ccccc3)nc12 | > 100 | > 100 | > 100 | > 100 | > 100 | > 100 | 79.2 | > 100 | > 100 | > 100 | > 100 | > 100 | > 100 |  | > 100 | > 100 | 66.8 | > 100 | > 100 | > 100
